Data: patent publication US4931447A, “Cycloalkylamides of (8β)-1-alkyl-6-(substituted) ergolines” (Eli Lilly and Company, priority 1989, dated 1990)

Target: T1, 5HT2 Receptors (Rattus norvegicus, UniProt P14842)
T1 construct: from tissue; host or cells: rat external jugular vein (isolated, male Wistar)
Assay: Apparent antagonist dissociation constant (KB) at 5HT2 receptors, serotonin-induced contraction of isolated rat external jugular vein
Assay type: cell-based, rat (male Wistar)
Description: Male Wistar rats (about 150-300 gram weight) were killed and their external jugular veins and thoracic aortas dissected free of connective tissue, cannulated in situ and placed in a modified Krebs' bicarbonate buffer in a suitable tissue bath. Two L-shaped 30-gauge stainless-steel hypodermic needles were inserted in each cannula and the dissected vessels gently pushed onto the needles. One needle was attached with thread to a stationary glass rod and the other to the transducer. [The procedure employed was that described by Hooker, Calkins and Fleisch, Blood Vessels, 14, 1, (1977) for use with circular smooth muscle preparations.]
The modified Krebs' bicarbonate buffer was composed of the following (concentrations in millimoles): sodium chloride, 118.2; potassium chloride, 4.6; calcium chloride dihydrate, 1.6; potassium dihydrogenphosphate, 1.2; magnesium sulfate, 1.2; dextrose, 10.0; sodium bicarbonate, 24.8; and water q.s. to 1000 g. The tissue baths were maintained at 37° C. and were aerated with 95% oxygen: 5% carbon dioxide (v:v). An initial optimum resting force of 1 g and 4 g was applied to the jugular vein and aorta, respectively. Isometric contractions were recorded as changes in grams of force on a Beckman Dynograph with Statham UC-3 transducers and microscale accessory attachment. Tissues were allowed to equilibrate 1 to 2 hours before exposure to drugs. Control responses to serotonin in the jugular vein and to norepinephrine in the aorta were obtained. The vessels were then incubated with appropriate concentrations of the test compound for one hour. Responses to serotonin or to norepinephrine were then repeated in the presence of the test compound. Contraction to serotonin was evaluated in the jugular vein since this tissue produces marked responses to serotonin in the absence of alpha receptors. See Cohen and Wiley, J. Pharm. Exp. Ther., 205, 400 (1978). Alpha receptor antagonist activity was evaluated in the aorta.
Apparent antagonist dissociation constants were determined for each concentration of the test compound according to the following equation: [formula] wherein [B] is the concentration of the antagonist and the dose ratio is the ED50 of the agonist in the presence of the antagonist divided by the control ED50. […] The -log KB values obtained for representative sensitive compounds of this invention and are given below in Table 1. ln the Table, column I provides the Example Number of the compound evaluated in the screen; columns 2-6, the identity of the compound evaluated in the screen when taken with the structure provided; and column 7, the apparent dissociation constant for the test compound.

T1 sequence (P14842 whole entry): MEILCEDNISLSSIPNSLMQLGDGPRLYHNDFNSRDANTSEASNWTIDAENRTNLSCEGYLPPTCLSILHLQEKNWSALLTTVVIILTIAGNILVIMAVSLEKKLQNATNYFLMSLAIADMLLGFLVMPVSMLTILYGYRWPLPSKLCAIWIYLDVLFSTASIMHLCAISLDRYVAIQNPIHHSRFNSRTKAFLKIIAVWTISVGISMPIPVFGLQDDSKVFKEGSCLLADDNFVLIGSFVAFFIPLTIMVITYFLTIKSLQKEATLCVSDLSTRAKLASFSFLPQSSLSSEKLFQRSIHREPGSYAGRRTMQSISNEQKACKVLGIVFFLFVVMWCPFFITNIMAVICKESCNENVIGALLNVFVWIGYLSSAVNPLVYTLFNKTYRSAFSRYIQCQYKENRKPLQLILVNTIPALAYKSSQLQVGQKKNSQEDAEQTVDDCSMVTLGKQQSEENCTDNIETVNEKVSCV

Q: With `CC(C)n1cc2c3c(cccc31)[C@H]1C[C@@H](C(=O)NC3CCCCC3)CN(C)[C@@H]1C2` [Example 1, (8β)-N-Cyclohexyl-1-isopropyl-6-methylergoline-8-carboxamide] as the compound, how does the Kb read?
A: 0.214 nM
